According to patent US20150351390A1, “COMPOSITIONS AND METHODS FOR AUXIN-ANALOG CONJUGATION” (PIONEER HI-BRED INTERNATIONAL, INC., priority 2012, published 2015):

Tests used:
[1] = test system: Soybean seeds; assay: Phytotoxicity evaluation during soybean germination; type: in vivo; conditions: 1 μM in germination media, 10 days
Description: To evaluate the effect of synthetic auxin conjugates in plants, 2,4-D-Asp, 2,4-D-Glu, dicamba-Asp, and dicamba-Glu were synthesized (Irvine Chemistry Laboratory, Anaheim, Calif.) and tested for auxin effects during soybean germination.
Asp and Glu conjugates of 2,4-D and dicamba were dissolved in a small quantity of Na2CO3 and ethanol, respectively, diluted in ddH2O to obtain 10 mM stock solution, and filter sterilized. Soybean seeds of a Pioneer elite germplasm were sterilized with chlorine gas as following: a) two layers of seeds were placed in a 100×25 mm plastic Petri dish; b) in an exhaust fume hood, seeds were placed into a glass desiccator with a 250 mL beaker containing 100 mL bleach (5% NaOC1) and 3.5 mL 12N HCl was slowly added to the beaker; c) the lid was sealed closed on the desiccator and the seeds sterilized for at least 24 hr.
Sterilized soybean seeds were then imbibed in ddH2O under sterile conditions at 25° C. for 24 hours before germination test. For germination test, 6-8 imbibed seeds were placed on a 100×25 mm deep Petri dish plate containing 50 ml germination media supplemented with or without auxin herbicide conjugates. 1 L seed germination media contains 3.21 g GAMBORG B-5 basal medium (PhytoTech), 20 g sucrose, 5 g tissue culture agar, and is pH adjusted to 5.7. Media was autoclaved at 121° C. for 25 min and cooled to 60° C. before the addition of auxin conjugates. Germination was carried out in a Percival growth chamber at 25° C. under 18 hr light and 6 hr dark cycle at 90 to 150 μE/m2/s and grown for 10 days.

[2] = test system: soybean seedlings; assay: Soybean seedling response to spot infiltrated auxins and conjugates; for 1st trifoliate leaf curl: key: 0 = no phenotype; +/− = threshold; for Chlorotic lesion @ app. Pnt: key: 0 = no phenotype; +/− = threshold; for Epinasty score: key: 0 = no phenotype; +/− = threshold; type: in vivo; conditions: for Chlorotic lesion @ app. Pnt / 1st trifoliate leaf curl / Epinasty score: spot infiltration; for Plant response phenotype, soybean: 50, 100 and 250 μM, result in words
Description: Conjugate forms of auxinic compounds when applied through spot infiltration, a needleless method to introduce exogenous agents into plant cells. Initially, various concentrations of analytical grade (98%+pure) IAA, 2,4-D, and dicamba were prepared as solutions that were applied directly to uni-foliate leaves of 9 day old soybean seedlings by spot infiltration in order to determine the range of auxinic response and severity.
Spot infiltration comprises applying a compound to be tested in composition that is applied to the surface of a plant, for example, to a leaf or other plant structure. For example, a method for testing a plant response to one or more compounds using spot infiltration comprises a) providing a composition comprising one or more compounds to be tested in a container having at least an opening for the compound enter and/or exit, and one or more elements for moving the composition into or out of the container; b) contacting at least one opening of the container with the surface of a plant and moving the composition comprising one or more compounds to at least the surface of the plant. A container and elements for moving the composition may comprise a syringe body and plunger. Moving the composition to the plant surface comprises contacting the surface with pressure sufficient for the composition to enter the cells of the plant. In an aspect, spot filtration testing comprises measuring an effect of the composition on the contacted plant and comparing that measure or effect to a plant that is not contacted with the composition.
Plant response phenotypes were documented at one day post-spot infiltration and subsequently every other day, up to nine days post treatment. […] In the studies described herein below, 5 replicate treatments for each conjugate form were conducted, along with appropriate negative controls.
(§1) Examples 9 and 10 utilized a spot infiltration method for the delivery of an herbicide directly to leaves of a plant. The method generally allows for the directed delivery of a variety of agents to a localized area of a plant, e.g. localized region of leaves, for screening or assessment purposes, e.g. to quickly assess the response of a plant to the agent. As used in the foregoing examples, the spot infiltration method was used to introduce specific herbicides or specific conjugates of the herbicides to seedling plant leaves. Following introduction of the herbicide or the appropriate conjugate, plants were observed daily for nine days for characteristics of epinasty, trifoliate leaf curly, chlorosis, and new growth recovery.
(§2) Briefly, a solution of the desired agent is prepared of the desired agent, e.g. as described above in Example 10, solutions (5% EtOH) of 1, 2.5 and 5 mM IAA. The solution is then drawn into a 1 mL BD™ slip-tip syringe, bulk, non-sterile syringe (e.g. Becton, Dickinson and Company, Product No. 301025) with 100 μL markings. The desired volume is then applied to the leaf, e.g. as described in Examples 9 and 10, with the tip of the syring against the leaf and positive pressure applied to the syringe plunger. Sufficient pressure is applied in order to infuse the area beneath the syringe opening, but not so much pressure as to cause a visible-to-the-eye puncture or hole to form in the leaf. Some run-off of solution around the syringe opening is expected. In the foregoing examples, two spots were applied to each of two leaves per seedling for soybean plants. […] In soybean, both spots per leaf were at the distal portion of the leaf about 1-2 cm apart. When the method was applied to Arabidopsis, two developmentally intermediate aged leaves were chosen per plant, and one spot infiltration was carried out per leaf.

[3] = test system: Arabidopsis ecotype Col-0 plant; assay: Arabidopsis response to spot infiltrated auxins and conjugates; type: in vivo, Arabidopsis thaliana; conditions: result in words
Description: The effect of auxin conjugates was assessed using Arabidoposis (Arabidopsis thialiana) ecotype Col-0 plant. Prior to studies utilizing the auxin conjugates, levels of analytical grade (98%+pure) IAA, 2,4-D and dicamba in solution were applied at various concentrations directly to developmentally similar leaves of 20-23 day old Arabidopsis seedlings by needleless syringe spot infiltration methodology, in order to determine range of auxinic response and severity. Phenotypes were documented relative to control at 1 day post-spot infiltration and subsequently every other day, up to nine days post treatment. Three concentrations were chosen based on reproducibility, and conjugated forms were then studied with 4 or more replicate treatments for each, along with appropriate negative controls (H2O and 10% EtOH).
as §1, §2
Generally, for Arabidopsis, the two leaves were chosen from opposite sides of rosette. In general, the spot infiltration method is carried out on younger plants in order to minimize experimental footprint and to maintain developmental uniformity. However, the method is not limited to use on young plants and can be easily applied to older plants as determined by the goals of a particular experiment.

| SMILES | Soybean seed germination and growth [1] | Chlorotic lesion @ app. Pnt ([2]; 50 μM) | Chlorotic lesion @ app. Pnt ([2]; 100 μM) | Chlorotic lesion @ app. Pnt ([2]; 250 μM) | Plant response phenotype, soybean [2] | Phenotype, Arabidopsis ([3]; 50, 100 and 250 μM) | 1st trifoliate leaf curl ([2]; 50 μM) | Epinasty score ([2]; 50 μM) | 1st trifoliate leaf curl ([2]; 100 μM) | Epinasty score ([2]; 100 μM) | 1st trifoliate leaf curl ([2]; 250 μM) | Epinasty score ([2]; 250 μM) | Phenotype, Arabidopsis ([3]; 100 and 250 μM, compared to dicamba alone) |
| --- | --- | --- | --- | --- | --- | --- | --- | --- | --- | --- | --- | --- | --- |
| COc1c(Cl)ccc(Cl)c1C(=O)O [dicamba, 3,6-dichloro-2-methoxybenzoic acid free acid] | seed germination was arrested | 0 | 0 | 0 | epinasty at day 1 and leaf curling of 1st tri-foliate | petiole epinasty and leaf curling at day one | – | – | – | – | – | – | – |
| COc1c(Cl)ccc(Cl)c1C(=O)NC(CC(=O)O)C(=O)O (stereo not drawn) [dicamba-Asp] | seed germination and growth were normal | 0 | 0 | 0 | phenotypes similar to that of negative control | No obvious phenotype | 0 | 0 | 0 | 0 | 0 | 0 | – |
| COc1c(Cl)ccc(Cl)c1C(=O)NC(CCC(=O)O)C(=O)O (stereo not drawn) [dicamba-Glu] | seed germination and growth were normal | 0 | 0 | 0 | phenotypes similar to that of negative control | – | 0 | 0 | 0 | 0 | 0 | 0 | modest epinasty |
